One data set has as its target EGFR (Homo sapiens, UniProt P00533). Nature of the data set: In vitro EGFR inhibition assay (Kinase-Glo luminescence).
Another data set has as its system HepG-2 cell line. Nature of the data set: MTT cytotoxicity assay, HepG-2. The class given is cell-based. To be noted: Homo sapiens, read-out: IC50 (mean±SD) HepG-2. An excerpt:
(§1) The recently incorporated quinazolinone-based targets 1–4, 6–13 underwent evaluation for their cytotoxic effects with in vitro employing MTT technique, according to the procedure that has been published[48]–[50], utilizing human fibroblast-derived BJ-1 normal cell line, and human cancer liver HepG-2, breast MCF-7, and colon HCT-116 cell lines. These cell lines were purchased from Karolinska Center, Department of Oncology and Pathology, Karolinska Institute and Hospital, Stockholm, Sweden, There were further details in the supplemental file.
(§2) The cell lines were obtained from Karolinska Center, Department of Oncology and Pathology, Karolinska Institute and Hospital, Stockholm, Sweden as follows: human liver HepG-2, breast MCF-7, and colorectal HCT-116 cancer cell lines and human fibroblast-derived BJ-1 normal cell line. Exponentially, cells were placed in 10^4 cells/ well for 24 h, and then add fresh medium which containing different concentration of the tested sample. Serial two-fold dilution of the tested sample were added using a multichannel pipette. Moreover, all cells were cultivated at 37 °C, 5% CO2 and 95% humidity. Also, incubation of control cells occurred at 37 °C. However, after incubation for 24 h different concentrations of sample (25, 12.5, 6.25 and 3.125 µM) were added and continued the incubation for 48 h, then, add the crystal violet solution 1% to each well for 0.5 h to examine viable cells. Rinse the wells using water until no stain. After that, add 30% glacial acetic acid to all wells with shaking plates on Microplate reader (TECAN, Inc.) to measure the absorbance, using a test wavelength of 490 nm. Besides, compare the treated samples with the control cell. The cytotoxicity was estimated by IC50 in (μM), the concentration that inhibits 50% of growth of cancer cell.

In another data set the test system is HCT-116 cell line. As to the kind of experiment: MTT cytotoxicity assay, HCT-116. To be noted: Homo sapiens, read-out: IC50 (mean±SD) HCT-116. The class given is cell-based.
Description: as §1, §2

The next data set deals with VEGFR-2 (Homo sapiens, UniProt P35968). As to the kind of experiment: In vitro VEGFR-2 inhibition assay (ELISA). To be noted: read-out: IC50 (mean ± SD) VEGFR-2; average of three values.
Another data set concerns MCF-7 cell line. As to the kind of experiment: MTT cytotoxicity assay, MCF-7. To be noted: Homo sapiens, read-out: IC50 (mean±SD) MCF-7. The class given is cell-based.
Description: as §1, §2

In a further data set the test system is BJ-1 normal cell line. Nature of the data set: MTT cytotoxicity assay, normal BJ-1 fibroblasts (safety profile). To be noted: Homo sapiens, read-out: IC50 (mean±SD) BJ-1. It counts as cell-based. On the procedure:
[…]. The safety profiles of all derivatives were assessed through cytotoxic evaluation using human fibroblast-derived BJ-1 normal cell lines. […].
as §1, §2

Where [1] appears, read: HepG2, HepG-2 liver cancer cells, 48 h incubation, mean of three values.
The mark [2] stands for this setting: HCT-116 colorectal cancer cells, 48 h incubation, mean of three values.
The mark [3] stands for this setting: MCF7, MCF-7 breast cancer cells, 48 h incubation, mean of three values.
Setting [4] is: BJ-1 normal fibroblast-derived cells, 48 h incubation, mean of three values.

13 compounds from paper PMC11500008, “Novel quinazolin-4-one based derivatives bearing 1,2,3-triazole and glycoside moieties as potential cytotoxic agents through dual EGFR and VEGFR-2 inhibitory activity” (Scientific Reports, 2024) can be followed below.

Like-named read-outs stand apart in the source and are kept apart here.

Sequence of EGFR (P00533 25-1210): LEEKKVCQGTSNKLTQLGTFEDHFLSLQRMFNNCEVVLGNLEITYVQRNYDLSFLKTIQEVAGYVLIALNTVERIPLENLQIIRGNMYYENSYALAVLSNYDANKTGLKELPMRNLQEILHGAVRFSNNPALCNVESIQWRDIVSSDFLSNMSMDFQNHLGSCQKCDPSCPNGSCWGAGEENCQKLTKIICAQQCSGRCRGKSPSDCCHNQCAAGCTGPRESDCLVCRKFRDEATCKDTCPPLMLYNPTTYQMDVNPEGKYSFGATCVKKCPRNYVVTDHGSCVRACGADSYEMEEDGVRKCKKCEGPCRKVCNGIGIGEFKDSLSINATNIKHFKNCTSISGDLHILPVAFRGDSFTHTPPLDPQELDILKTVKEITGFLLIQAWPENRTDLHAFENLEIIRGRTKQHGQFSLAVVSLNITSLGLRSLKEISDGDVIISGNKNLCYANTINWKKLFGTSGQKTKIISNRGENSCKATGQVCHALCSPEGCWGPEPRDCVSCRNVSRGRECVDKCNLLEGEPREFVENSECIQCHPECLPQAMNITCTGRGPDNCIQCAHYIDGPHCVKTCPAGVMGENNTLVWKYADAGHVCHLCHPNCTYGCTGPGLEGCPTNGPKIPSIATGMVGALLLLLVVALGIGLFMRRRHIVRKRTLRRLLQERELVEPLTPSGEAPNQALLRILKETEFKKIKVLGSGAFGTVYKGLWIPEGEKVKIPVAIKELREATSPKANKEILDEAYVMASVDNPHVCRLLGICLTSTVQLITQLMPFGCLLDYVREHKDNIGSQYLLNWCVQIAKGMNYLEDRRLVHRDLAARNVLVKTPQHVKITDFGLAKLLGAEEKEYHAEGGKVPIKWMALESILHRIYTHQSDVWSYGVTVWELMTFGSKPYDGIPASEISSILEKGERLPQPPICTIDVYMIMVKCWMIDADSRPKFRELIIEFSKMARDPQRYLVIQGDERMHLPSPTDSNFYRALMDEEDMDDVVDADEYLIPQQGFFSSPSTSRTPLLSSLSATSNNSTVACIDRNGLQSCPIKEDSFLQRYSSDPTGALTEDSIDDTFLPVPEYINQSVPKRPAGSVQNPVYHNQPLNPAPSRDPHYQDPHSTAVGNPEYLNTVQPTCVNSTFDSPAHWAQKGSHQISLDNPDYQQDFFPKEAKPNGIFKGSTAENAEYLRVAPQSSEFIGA
Sequence of VEGFR-2 (P35968 20-1356): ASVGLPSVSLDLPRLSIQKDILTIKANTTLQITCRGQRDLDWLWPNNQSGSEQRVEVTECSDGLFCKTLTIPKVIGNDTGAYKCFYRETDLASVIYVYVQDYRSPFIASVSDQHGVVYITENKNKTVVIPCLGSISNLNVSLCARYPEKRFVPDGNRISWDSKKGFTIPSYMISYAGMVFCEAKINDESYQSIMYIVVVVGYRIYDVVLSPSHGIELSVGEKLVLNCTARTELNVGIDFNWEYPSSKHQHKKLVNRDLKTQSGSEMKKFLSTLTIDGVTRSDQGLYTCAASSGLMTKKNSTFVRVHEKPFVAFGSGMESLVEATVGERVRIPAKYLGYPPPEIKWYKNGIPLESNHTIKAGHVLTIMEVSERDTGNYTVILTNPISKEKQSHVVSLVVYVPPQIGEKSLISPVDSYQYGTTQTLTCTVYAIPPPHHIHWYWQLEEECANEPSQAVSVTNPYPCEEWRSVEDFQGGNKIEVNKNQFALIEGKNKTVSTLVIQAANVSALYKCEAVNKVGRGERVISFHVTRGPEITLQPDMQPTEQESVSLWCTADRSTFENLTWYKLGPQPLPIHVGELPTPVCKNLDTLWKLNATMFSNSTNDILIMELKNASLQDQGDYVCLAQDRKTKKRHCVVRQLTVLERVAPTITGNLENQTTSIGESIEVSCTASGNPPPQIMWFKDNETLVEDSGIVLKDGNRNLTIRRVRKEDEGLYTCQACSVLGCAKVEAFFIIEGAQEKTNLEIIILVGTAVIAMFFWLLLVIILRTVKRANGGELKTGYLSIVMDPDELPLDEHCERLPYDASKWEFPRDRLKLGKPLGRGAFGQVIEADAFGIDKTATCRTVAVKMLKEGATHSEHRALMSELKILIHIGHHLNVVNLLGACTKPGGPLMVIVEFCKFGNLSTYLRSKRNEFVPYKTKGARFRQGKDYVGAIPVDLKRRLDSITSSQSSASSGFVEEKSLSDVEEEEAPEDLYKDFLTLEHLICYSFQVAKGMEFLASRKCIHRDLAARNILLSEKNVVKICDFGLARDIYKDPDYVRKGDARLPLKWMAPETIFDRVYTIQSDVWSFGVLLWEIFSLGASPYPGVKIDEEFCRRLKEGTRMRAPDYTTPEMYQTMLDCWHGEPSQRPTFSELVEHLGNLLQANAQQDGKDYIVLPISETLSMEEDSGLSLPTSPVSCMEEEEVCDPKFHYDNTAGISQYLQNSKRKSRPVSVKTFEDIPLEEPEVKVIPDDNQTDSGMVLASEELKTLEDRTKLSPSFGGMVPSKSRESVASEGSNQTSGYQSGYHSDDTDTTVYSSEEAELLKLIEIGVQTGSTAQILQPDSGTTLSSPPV

Take `O=c1c2ccccc2nc(SCc2cn([C@@H]3OC[C@@H](O)[C@H](O)[C@H]3O)nn2)n1-c1ccccc1` [Compound 12, 2-(((1-[β-D-Xylopyranosyl]-1 H-1,2,3-triazol-4-yl)methyl)thio)-3-phenylquinazolin-4(3 H)-one]: the IC50 on EGFR is 15.88 ± 0.14 µM; with HepG-2 cell line (setting [1]) it was 15.1 ± 1.9 µM; with HCT-116 cell line (setting [2]) it was 3 ± 0.3 µM; on VEGFR-2, 13.63 ± 0.08 µM; with MCF-7 cell line (setting [3]) it was 6.9 ± 0.3 µM; in the data set on BJ-1 normal cell line (setting [4]), 24.7 ± 2.4 µM.
Take `CC(=O)OC[C@H]1O[C@@H](n2cc(CSc3nc4ccccc4c(=O)n3-c3ccccc3)nn2)[C@H](OC(C)=O)[C@@H](OC(C)=O)[C@H]1OC(C)=O` [Compound 6, 2-(((1-[2,3,4,6-Tetra-O-acetyl-β-D-galactopyranosyl]-1 H-1,2,3-triazol-4-yl)methyl)thio)-3-phenylquinazolin-4(3 H)-one]: the melting point fell in the range of 90 to 92 °C. In addition, the IC50 on EGFR came to 18.63 ± 0.14 µM. Further, in the data set with HepG-2 cell line (setting [1]), the IC50 came to 19.2 ± 2.1 µM. For the same compound, the IC50 with HCT-116 cell line (setting [2]) turned out to be 3.2 ± 0.1 µM. Besides, at VEGFR-2, the concentration for half-maximal inhibition (IC50) worked out at 32.25 ± 0.25 µM. Moreover, in the data set on MCF-7 cell line (setting [3]), the IC50 came to 13.4 ± 1.2 µM. In the data set on BJ-1 normal cell line (setting [4]), the 50% inhibitory concentration (IC50) was over 25 µM.
`Cn1c(SCc2cn([C@@H]3O[C@H](CO)[C@H](O)[C@H](O)[C@H]3O)nn2)nc2ccccc2c1=O` [Compound 11, 2-(((1-[β-D-Galactopyranosyl]-1 H-1,2,3-triazol-4-yl)methyl)thio)-3-methylquinazolin-4(3 H)-one]: the IC50 against EGFR was 0.35 ± 0.11 µM; in the data set on HepG-2 cell line (setting [1]), 17.8 ± 2.1 µM; with HCT-116 cell line (setting [2]), 5.9 ± 0.1 µM; at VEGFR-2 it was 22.86 ± 0.13 µM; with MCF-7 cell line (setting [3]) it was 5.7 ± 0.2 µM; in the data set with BJ-1 normal cell line (setting [4]) it was over 25 µM.
With `O=c1c2ccccc2nc(S)n1-c1ccccc1` [Compound 1], the IC50 in the data set with HepG-2 cell line (setting [1]) was 21.9 ± 1.9 µM; in the data set with HCT-116 cell line (setting [2]) it was 18.6 ± 1.5 µM; in the data set with MCF-7 cell line (setting [3]), 16.1 ± 1.1 µM; in the data set on BJ-1 normal cell line (setting [4]), over 25 µM.
Consider `COc1cccc2c1C(=O)c1c(O)c3c(c(O)c1C2=O)C[C@@](O)(C(=O)CO)C[C@@H]3O[C@H]1C[C@H](N)[C@H](O)[C@H](C)O1` [Doxorubicin, reference compound], for which the IC50 in the data set on HepG-2 cell line (setting [1]) was 4.8 ± 0.5 µM; in the data set with HCT-116 cell line (setting [2]), 6.5 ± 0.5 µM; with MCF-7 cell line (setting [3]) it was 5.6 ± 0.3 µM; with BJ-1 normal cell line (setting [4]), 32.1 ± 3.1 µM.
In turn, `CC(=O)O[C@@H]1[C@@H](OC(C)=O)[C@H](OC(C)=O)CO[C@H]1n1cc(CSc2nc3ccccc3c(=O)n2C)nn1` [Compound 9, 2-(((1-[2,3,4-tri-O-acetyl-β-D-xylopyranosyl]-1 H-1,2,3-triazol-4-yl)methyl)thio)-3-methylquinazolin-4(3 H)-one] gave a melting point of 146 to 148 °C. At EGFR, this compound gave an IC50 of 23.05 ± 0.08 µM. Also, the IC50 in the data set with HepG-2 cell line (setting [1]) came out at 22.9 ± 2.3 µM. In addition, in the data set with HCT-116 cell line (setting [2]), the IC50 stood at 3.2 ± 0.2 µM. In addition, on VEGFR-2, the IC50 is 30.6 ± 0.32 µM. In addition, the IC50 with MCF-7 cell line (setting [3]) worked out at 12.6 ± 1.3 µM. In addition, the IC50 in the data set with BJ-1 normal cell line (setting [4]) is over 25 µM.
`CC(=O)OC[C@H]1O[C@@H](n2cc(CSc3nc4ccccc4c(=O)n3C)nn2)[C@H](OC(C)=O)[C@@H](OC(C)=O)[C@H]1OC(C)=O` [Compound 7, 2-(((1-[2,3,4,6-Tetra-O-acetyl-β-D-galactopyranosyl]-1 H-1,2,3-triazol-4-yl)methyl)thio)-3-methylquinazolin-4(3 H)-one]: the IC50 on EGFR was found to be 17.94 ± 0.1 µM; in the data set with HepG-2 cell line (setting [1]), 21.5 ± 2.5 µM; in the data set with HCT-116 cell line (setting [2]), 5.5 ± 0.1 µM; on VEGFR-2 it was 36.33 ± 0.17 µM; with MCF-7 cell line (setting [3]), 17.3 ± 0.5 µM; with BJ-1 normal cell line (setting [4]) it was 22.9 ± 3.2 µM.
Regarding `C#CCSc1nc2ccccc2c(=O)n1C` [Compound 4, 3-methyl-2-(prop-2-yn-1-ylthio)quinazolin-4(3 H)-one], the melting point was 163 to 165 °C. Also, the IC50 in the data set on HepG-2 cell line (setting [1]) was determined as 21.9 ± 2.7 µM. In addition, the IC50 in the data set on HCT-116 cell line (setting [2]) worked out at 13.5 ± 1.1 µM. For the same compound, the IC50 in the data set on MCF-7 cell line (setting [3]) was determined as 14.6 ± 1.1 µM. Besides, in the data set with BJ-1 normal cell line (setting [4]), the IC50 is over 25 µM.
As to `C#CCSc1nc2ccccc2c(=O)n1-c1ccccc1` [Compound 3], the half-inhibitory concentration (IC50) was over 25 µM in the data set with HepG-2 cell line (setting [1]), 14.8 ± 1.6 µM in the data set on HCT-116 cell line (setting [2]), 15.9 ± 1.3 µM in the data set on MCF-7 cell line (setting [3]) and over 25 µM in the data set with BJ-1 normal cell line (setting [4]).
`C#Cc1cccc(Nc2ncnc3cc(OCCOC)c(OCCOC)cc23)c1` [Erlotinib, reference compound]: the half-maximal inhibitory concentration (IC50) with HepG-2 cell line (HepG2, 48 h) was 7.8 ± 0.2 µM; with HCT-116 cell line (HCT-116, 48 h) it was 7.3 ± 0.2 µM; in the data set with MCF-7 cell line (MCF7, 48 h) it was 4.3 ± 0.1 µM; in the data set on BJ-1 normal cell line (Fibroblast, 48 h), 58.3 ± 1.4 µM.
For `O=c1c2ccccc2nc(SCc2cn([C@@H]3O[C@H](CO)[C@H](O)[C@H](O)[C@H]3O)nn2)n1-c1ccccc1` [Compound 10, 2-(((1-[β-D-Galactopyranosyl]-1 H-1,2,3-triazol-4-yl)methyl)thio)-3-phenylquinazolin-4(3 H)-one], the IC50 at EGFR came to 16.75 ± 0.05 µM; with HepG-2 cell line (setting [1]), 17.1 ± 1.1 µM; in the data set with HCT-116 cell line (setting [2]), 6.4 ± 0.4 µM; at VEGFR-2, 22.33 ± 0.1 µM; in the data set on MCF-7 cell line (setting [3]), 8.1 ± 0.6 µM; in the data set with BJ-1 normal cell line (setting [4]), 23.5 ± 3.1 µM.
The compound `CC(=O)O[C@@H]1[C@@H](OC(C)=O)[C@H](OC(C)=O)CO[C@H]1n1cc(CSc2nc3ccccc3c(=O)n2-c2ccccc2)nn1` [Compound 8, 2-(((1-[2,3,4-tri-O-acetyl-β-D-xylopyranosyl]-1 H-1,2,3-triazol-4-yl)methyl)thio)-3-phenylquinazolin-4(3 H)-one] yielded a melting point of 210 to 212 °C. Moreover, on EGFR, the IC50 amounted to 21.38 ± 0.15 µM. For the same compound, the IC50 in the data set on HepG-2 cell line (setting [1]) worked out at 21.4 ± 3.1 µM. Besides, the IC50 in the data set with HCT-116 cell line (setting [2]) was under 3.12 µM. Also, at VEGFR-2, the IC50 turned out to be 28.4 ± 0.5 µM. For the same compound, the IC50 in the data set with MCF-7 cell line (setting [3]) is 14 ± 1.2 µM. In the data set with BJ-1 normal cell line (setting [4]), the IC50 was over 25 µM.
For `Cn1c(S)nc2ccccc2c1=O` [Compound 2], the IC50 in the data set with HepG-2 cell line (setting [1]) is 24.1 ± 3.1 µM; in the data set with HCT-116 cell line (setting [2]), 16.1 ± 1.3 µM; with MCF-7 cell line (setting [3]), 14.9 ± 1.3 µM; in the data set with BJ-1 normal cell line (setting [4]) it was over 25 µM.
